# Earlier results as cited in patent US20140044685A1, “NUTRITIONAL COMPOSITIONS HAVING ALPHA-HICA AND CITRULLINE” (NESTEC S.A., priority 2011, published 2014).
# How the values were obtained:
# [1] = test system: intestinal mammalian target of rapamycin (mTOR); details: piglet stressed with LPS; leading to increased protein synthesis and anti-inflammatory responses
# [2] = piglet stressed with LPS
# [3] = malnourished aged animals
SMILES,phosphorylation of intestinal mammalian target of rapamycin (mTOR) [1],crypt depth [2],villous height [2],anabolic effect [3]
"O=C(O)CCC(=O)C(=O)O [AKG, α-ketoglutarate]",increased,reduced,increased,
"NC(=O)NCCC[C@H](N)C(=O)O [Citrulline, citrulline]",,,,anabolic effect
